# Measured values from PubChem BioAssay AID1963845 (Molecular Pharmacology Branch, DTP, NCI, 2024).
# pIC50: −log10 of the molar value.
# Test system: 429239-143-T-J1-PDC complex spheroid viability
# Test: Anticancer human tumor 429239-143-T-J1-PDC patient-derived small cell lung carcinoma cell line growth inhibition [POLQ]
# Conditions: for pIC50: curve of first compound; for viability, T/C: stronger effect = lower value
# How it was run: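 Growth inhibition in 3D: complex spheroids (tumor PDC, HUVEC, MSC) treated with POLQ inhibitor combinations; where Cmax unknown, highest tested concentration 10 microM, except SN-38 at 1 microM.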
# [1] = second compound 0.0316 µM, first compound 0.0316 µM
# [2] = second compound 0.0316 µM, first compound 0.1 µM
# [3] = second compound 0.0316 µM, first compound 0.316 µM
# [4] = second compound 0.0316 µM, first compound 1 µM
# [5] = second compound 0.0316 µM, first compound 3.16 µM
# [6] = second compound 0.0316 µM, first compound 10 µM
# [7] = second compound 0.1 µM, first compound 0.0316 µM
# [8] = second compound 0.1 µM, first compound 0.1 µM
# [9] = second compound 0.1 µM, first compound 0.316 µM
# [10] = second compound 0.1 µM, first compound 1 µM
# [11] = second compound 0.1 µM, first compound 3.16 µM
# [12] = second compound 0.1 µM, first compound 10 µM
# [13] = second compound 0.316 µM, first compound 0.0316 µM
# [14] = second compound 0.316 µM, first compound 0.1 µM
# [15] = second compound 0.316 µM, first compound 0.316 µM
# [16] = second compound 0.316 µM, first compound 1 µM
# [17] = second compound 0.316 µM, first compound 3.16 µM
# [18] = second compound 0.316 µM, first compound 10 µM
# [19] = second compound 1 µM, first compound 0.0316 µM
# [20] = second compound 1 µM, first compound 0.1 µM
# [21] = second compound 1 µM, first compound 0.316 µM
# [22] = second compound 1 µM, first compound 1 µM
# [23] = second compound 1 µM, first compound 3.16 µM
# [24] = second compound 1 µM, first compound 10 µM
# [25] = second compound 3.16 µM, first compound 0.0316 µM
# [26] = second compound 3.16 µM, first compound 0.1 µM
# [27] = second compound 3.16 µM, first compound 0.316 µM
# [28] = second compound 3.16 µM, first compound 1 µM
# [29] = second compound 3.16 µM, first compound 3.16 µM
# [30] = second compound 3.16 µM, first compound 10 µM
# [31] = second compound 10 µM, first compound 0.0316 µM
# [32] = second compound 10 µM, first compound 0.1 µM
# [33] = second compound 10 µM, first compound 0.316 µM
# [34] = second compound 10 µM, first compound 1 µM
# [35] = second compound 10 µM, first compound 3.16 µM
# [36] = second compound 10 µM, first compound 10 µM
# 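Note: luminescence signal used as surrogate measure of viable cells; spheroids exposed to compounds for seven days before readout.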
# 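Throughout, for viability, T/C: 100% = DMSO vehicle control viability as luminescence relative to vehicle.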
structure (smiles),measurement,setting,value
C=CC(=O)N1CCN(c2nc(=O)n(-c3c(C)ccnc3C(C)C)c3nc(-c4c(O)cccc4F)c(F)cc23)C(C)C1 (centres undefined) + COC1C(OC(N)=O)C(O)C(Oc2ccc3c(O)c(NC(=O)c4ccc(O)c(CC=C(C)C)c4)c(=O)oc3c2C)OC1(C)C,pIC50,second compound 0.0316 µM,< 5.00
same,pIC50,second compound 0.1 µM,< 5.00
same,pIC50,second compound 0.316 µM,< 5.00
same,pIC50,second compound 1 µM,< 5.00
same,pIC50,second compound 3.16 µM,< 5.00
same,pIC50,second compound 10 µM,< 5.00
same,"viability, T/C",[1],107%
same,"viability, T/C",[2],89.5%
same,"viability, T/C",[3],94%
same,"viability, T/C",[4],94.6%
same,"viability, T/C",[5],107%
same,"viability, T/C",[6],112%
same,"viability, T/C",[7],104%
same,"viability, T/C",[8],94.3%
same,"viability, T/C",[9],93.6%
same,"viability, T/C",[10],104%
same,"viability, T/C",[11],87.9%
same,"viability, T/C",[12],97.7%
same,"viability, T/C",[13],96.7%
same,"viability, T/C",[14],90.8%
same,"viability, T/C",[15],91.7%
same,"viability, T/C",[16],91.7%
same,"viability, T/C",[17],103%
same,"viability, T/C",[18],101%
same,"viability, T/C",[19],98.4%
same,"viability, T/C",[20],94.6%
same,"viability, T/C",[21],99.8%
same,"viability, T/C",[22],96.6%
same,"viability, T/C",[23],103%
same,"viability, T/C",[24],101%
same,"viability, T/C",[25],94.9%
same,"viability, T/C",[26],107%
same,"viability, T/C",[27],95.3%
same,"viability, T/C",[28],95.3%
same,"viability, T/C",[29],98.7%
same,"viability, T/C",[30],103%
same,"viability, T/C",[31],79.5%
same,"viability, T/C",[32],84.8%
same,"viability, T/C",[33],91.5%
same,"viability, T/C",[34],87.7%
same,"viability, T/C",[35],104%
same,"viability, T/C",[36],103%
CC(C)n1c(=O)n(C)c2cnc3cc(F)c(-c4ccc(OCCCN5CCCCC5)nc4)cc3c21 + COC1C(OC(N)=O)C(O)C(Oc2ccc3c(O)c(NC(=O)c4ccc(O)c(CC=C(C)C)c4)c(=O)oc3c2C)OC1(C)C,pIC50,second compound 0.0316 µM,< 5.00
same,pIC50,second compound 0.1 µM,< 5.00
same,pIC50,second compound 0.316 µM,< 5.00
same,pIC50,second compound 1 µM,< 5.00
same,pIC50,second compound 3.16 µM,< 5.00
same,pIC50,second compound 10 µM,< 5.00
same,"viability, T/C",[1],107%
same,"viability, T/C",[2],86.6%
same,"viability, T/C",[3],99%
same,"viability, T/C",[4],109%
same,"viability, T/C",[5],104%
same,"viability, T/C",[6],85.4%
same,"viability, T/C",[7],102%
same,"viability, T/C",[8],93.7%
same,"viability, T/C",[9],82.7%
same,"viability, T/C",[10],96.8%
same,"viability, T/C",[11],82.9%
same,"viability, T/C",[12],84.7%
same,"viability, T/C",[13],109%
same,"viability, T/C",[14],91%
same,"viability, T/C",[15],82.3%
same,"viability, T/C",[16],103%
same,"viability, T/C",[17],90.6%
same,"viability, T/C",[18],72.5%
same,"viability, T/C",[19],93.2%
same,"viability, T/C",[20],104%
same,"viability, T/C",[21],91.5%
same,"viability, T/C",[22],96.9%
same,"viability, T/C",[23],81.5%
same,"viability, T/C",[24],70.2%
same,"viability, T/C",[25],101%
same,"viability, T/C",[26],84.8%
same,"viability, T/C",[27],90.9%
same,"viability, T/C",[28],100%
same,"viability, T/C",[29],87.6%
same,"viability, T/C",[30],83.6%
same,"viability, T/C",[31],86.9%
same,"viability, T/C",[32],85.8%
same,"viability, T/C",[33],88.7%
same,"viability, T/C",[34],102%
same,"viability, T/C",[35],74%
same,"viability, T/C",[36],88.4%
